Test [1] is described as follows: DPPH radical scavenging activity. The note with it: mean ± SD (n = 3).
Method: Briefly, 150 μL of DPPH solution (dissolved 0.2 mM in methanol) was mixed with 50 μL of the sample at different concentrations. The mixture was stirred and incubated in the dark at 30°C for 30 min, and the absorbance was determined at 517 nm (Asample). The absorbance of a blank (Ablank) and negative control (Acontrol) composed of only the sample and DPPH solutions was also determined, respectively. The DPPH radical scavenging activity of the sample was calculated by the following equation: DPPHscavengingactivity = [1 − (Asample–Ablank)/Acontrol] × 100%. Vc was used as a positive control in this experiment.
Test [2] can be described thus: ABTS radical scavenging activity. The note with it: mean ± SD (n = 3). On the procedure:
The ABTS radical scavenging activity of the sample was carried out using the method reported by Sun et al. with minor modification. Briefly, 1.76 mL of K2S2O8 (140 mM) and 100 mL of ABTS solution (7 mM) were mixed and stored in the dark at 25°C for 12 h. […] The absorbance of a blank (Ablank) and negative control (Acontrol) composed of only the sample and diluted ABTS^+ radical solutions was also determined, respectively. The ABTS radical scavenging activity of the sample was calculated by the following equation: […] = [1 - (Asample-Ablank)/Acontrol] × 100%. Vc was used as a positive control in this experiment.

The source of these data is publication PMC7700040, “Phytochemical Analysis, Anti-inflammatory, and Antioxidant Activities of Dendropanax dentiger Roots” (BioMed Research International, 2020).

≈ marks a conversion by molar mass, not a printed value.

With `O=C1O[C@H]([C@@H](O)CO)C(O)=C1O` [Vc, L-Ascorbic acid], the “IC50 DPPH assay” value in test [1] was determined as 6.0 ± 0.2 µg/mL (≈ 34.1 µM). Moreover, the “IC50 ABTS assay” value in test [2] came to 1.2 ± 0.1 µg/mL (≈ 6.81 µM).
